What was measured:
Dihydrofolate reductase [1] = biological target: T1, Dihydrofolate reductase (Bacillus anthracis, UniProt Q81R22); assay: Inhibition of Bacillus anthracis DHFR
T1 sequence (Q81R22 whole entry): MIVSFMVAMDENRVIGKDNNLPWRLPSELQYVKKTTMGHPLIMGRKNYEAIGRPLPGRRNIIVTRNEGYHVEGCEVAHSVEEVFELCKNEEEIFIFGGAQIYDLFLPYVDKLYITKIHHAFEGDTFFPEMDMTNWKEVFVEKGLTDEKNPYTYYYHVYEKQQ

Bacillus anthracis = assay: Antibacterial activity against Bacillus anthracis; format: functional
Dihydrofolate reductase [2] = biological target: T2, Dihydrofolate reductase (Homo sapiens, UniProt P00374); assay: Inhibition of human DHFR
T2 sequence (P00374 whole entry): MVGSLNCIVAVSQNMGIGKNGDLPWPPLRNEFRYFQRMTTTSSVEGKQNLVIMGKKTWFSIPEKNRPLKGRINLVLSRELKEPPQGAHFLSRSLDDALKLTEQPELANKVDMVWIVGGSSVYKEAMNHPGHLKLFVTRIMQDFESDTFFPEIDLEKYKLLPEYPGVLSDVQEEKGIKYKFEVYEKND

Question: Which IC50 (Dihydrofolate reductase [1]) does the source give for `CCC[C@H]1c2ccccc2C=NN1C(=O)/C=C/c1cc(Cc2cnc(N)nc2N)cc(OC)c1OC` here?
Answer: 54 nM

Question: What about the MIC (Bacillus anthracis) of the same molecule?
Answer: ≤ 12.8 µg/mL

Question: What about the IC50 (Dihydrofolate reductase [2]) of the same molecule?
Answer: 110000 nM

Question: For `C=CC(=O)N1N=Cc2ccccc2C1CCC` (stereo unspecified), which IC50 (Dihydrofolate reductase [1]) is on record?
Answer: 46 nM

Question: How did the IC50 (Dihydrofolate reductase [1]) turn out when `CC[C@H]1c2ccccc2C=NN1C(=O)/C=C/c1cc(Cc2cnc(N)nc2N)cc(OC)c1OC` was run?
Answer: 96 nM

Question: For `CCCC[C@H]1c2ccccc2C=NN1C(=O)/C=C/c1cc(Cc2cnc(N)nc2N)cc(OC)c1OC`, which IC50 (Dihydrofolate reductase [1]) is on record?
Answer: 170 nM

— ChEMBL document CHEMBL1649473, “Crystal structure of Bacillus anthracis dihydrofolate reductase with the dihydrophthalazine-based trimethoprim derivative RAB1 provides a structural explanation of potency and selectivity” (Antimicrob Agents Chemother, 2009)
